Data taken from the NIST ThermoML archive (doi:10.1021/je3011634).
± gives the expanded uncertainty stated by the source.

Test: xn = mol fraction of the nth substance listed
Conditions: 101 kPa, Liquid; for viscosity: Capillary tube (Ostwald / Ubbelohde) method; for mass density: Vibrating tube method

CC(C)CO [2-methyl-1-propanol] + CC(C)O
Conditions	mass density, 293.15 K [kg/m3]	mass density, 303.15 K [kg/m3]	mass density, 313.15 K [kg/m3]	mass density, 323.15 K [kg/m3]	mass density, 333.15 K [kg/m3]	viscosity, 293.15 K [mPa·s]	viscosity, 303.15 K [mPa·s]	viscosity, 313.15 K [mPa·s]	viscosity, 323.15 K [mPa·s]	viscosity, 333.15 K [mPa·s]
x1 = 0.1495	788.29 ± 0.17	779.93 ± 0.18	771.29 ± 0.18	762.29 ± 0.18	752.87 ± 0.18	2.45 ± 0.1	1.817 ± 0.1	1.259 ± 0.1	0.983 ± 0.1	0.648 ± 0.1
x1 = 0.2001	789.25 ± 0.18	780.93 ± 0.18	772.34 ± 0.18	763.4 ± 0.18	754.05 ± 0.18	2.498 ± 0.1	1.839 ± 0.1	1.28 ± 0.1	0.999 ± 0.1	0.663 ± 0.1
x1 = 0.3	791.09 ± 0.18	782.85 ± 0.18	774.35 ± 0.19	765.53 ± 0.19	756.31 ± 0.19	2.621 ± 0.1	1.907 ± 0.1	1.331 ± 0.1	1.035 ± 0.1	0.696 ± 0.1
x1 = 0.4249	793.26 ± 0.19	785.12 ± 0.19	776.74 ± 0.19	768.04 ± 0.19	758.97 ± 0.2	2.81 ± 0.1	2.021 ± 0.1	1.418 ± 0.1	1.095 ± 0.1	0.745 ± 0.1
x1 = 0.5189	794.8 ± 0.2	786.73 ± 0.2	778.43 ± 0.2	769.83 ± 0.2	760.87 ± 0.2	2.976 ± 0.1	2.131 ± 0.1	1.505 ± 0.1	1.158 ± 0.1	0.794 ± 0.1
x1 = 0.6202	796.38 ± 0.2	788.38 ± 0.21	780.17 ± 0.21	771.67 ± 0.21	762.82 ± 0.21	3.184 ± 0.1	2.271 ± 0.1	1.617 ± 0.1	1.237 ± 0.1	0.857 ± 0.1
x1 = 0.7166	797.83 ± 0.21	789.9 ± 0.21	781.76 ± 0.21	773.35 ± 0.22	764.6 ± 0.22	3.395 ± 0.1	2.417 ± 0.1	1.732 ± 0.1	1.32 ± 0.1	0.921 ± 0.1
x1 = 0.8005	799.06 ± 0.22	791.18 ± 0.22	783.1 ± 0.22	774.76 ± 0.22	766.09 ± 0.22	3.594 ± 0.1	2.547 ± 0.1	1.837 ± 0.1	1.394 ± 0.1	0.979 ± 0.1
x1 = 0.9001	800.47 ± 0.23	792.65 ± 0.23	784.64 ± 0.23	776.38 ± 0.23	767.81 ± 0.23	3.838 ± 0.1	2.709 ± 0.1	1.963 ± 0.1	1.483 ± 0.1	1.051 ± 0.1

CC(C)CO [2-methyl-1-propanol] + CCCO
Conditions	mass density, 293.15 K [kg/m3]	mass density, 303.15 K [kg/m3]	mass density, 313.15 K [kg/m3]	mass density, 323.15 K [kg/m3]	mass density, 333.15 K [kg/m3]	viscosity, 293.15 K [mPa·s]	viscosity, 303.15 K [mPa·s]	viscosity, 313.15 K [mPa·s]	viscosity, 323.15 K [mPa·s]	viscosity, 333.15 K [mPa·s]
x1 = 0.1038	803.39 ± 0.15	795.39 ± 0.15	787.25 ± 0.15	778.91 ± 0.16	770.34 ± 0.16	2.147 ± 0.1	1.586 ± 0.1	1.079 ± 0.1	0.835 ± 0.1	0.508 ± 0.1
x1 = 0.1962	803.24 ± 0.15	795.27 ± 0.16	787.16 ± 0.16	778.85 ± 0.16	770.31 ± 0.16	2.269 ± 0.1	1.657 ± 0.1	1.14 ± 0.1	0.88 ± 0.1	0.545 ± 0.1
x1 = 0.2944	803.09 ± 0.16	795.15 ± 0.16	787.07 ± 0.16	778.79 ± 0.16	770.27 ± 0.17	2.413 ± 0.1	1.744 ± 0.1	1.21 ± 0.1	0.93 ± 0.1	0.588 ± 0.1
x1 = 0.4058	802.91 ± 0.17	795.01 ± 0.17	786.96 ± 0.17	778.71 ± 0.17	770.2 ± 0.17	2.594 ± 0.1	1.855 ± 0.1	1.297 ± 0.1	0.991 ± 0.1	0.641 ± 0.1
x1 = 0.504	802.75 ± 0.17	794.88 ± 0.18	786.86 ± 0.18	778.62 ± 0.18	770.13 ± 0.18	2.768 ± 0.1	1.967 ± 0.1	1.382 ± 0.1	1.052 ± 0.1	0.693 ± 0.1
x1 = 0.6041	802.58 ± 0.18	794.74 ± 0.19	786.74 ± 0.19	778.52 ± 0.19	770.04 ± 0.19	2.961 ± 0.1	2.099 ± 0.1	1.487 ± 0.1	1.126 ± 0.1	0.753 ± 0.1
x1 = 0.7019	802.41 ± 0.2	794.59 ± 0.2	786.61 ± 0.2	778.41 ± 0.2	769.94 ± 0.2	3.172 ± 0.1	2.253 ± 0.1	1.611 ± 0.1	1.217 ± 0.1	0.83 ± 0.1
x1 = 0.8072	802.21 ± 0.21	794.41 ± 0.21	786.45 ± 0.21	778.26 ± 0.21	769.8 ± 0.21	3.452 ± 0.1	2.448 ± 0.1	1.767 ± 0.1	1.335 ± 0.1	0.928 ± 0.1
x1 = 0.8996	–	794.24 ± 0.22	786.29 ± 0.22	778.11 ± 0.22	769.64 ± 0.23	–	2.643 ± 0.1	1.914 ± 0.1	1.446 ± 0.1	1.018 ± 0.1

NCCCO [3-amino-1-propanol] + CCCO
Conditions	mass density, 293.15 K [kg/m3]	mass density, 303.15 K [kg/m3]	mass density, 313.15 K [kg/m3]	mass density, 323.15 K [kg/m3]	mass density, 333.15 K [kg/m3]	viscosity, 293.15 K [mPa·s]	viscosity, 303.15 K [mPa·s]	viscosity, 313.15 K [mPa·s]	viscosity, 323.15 K [mPa·s]	viscosity, 333.15 K [mPa·s]
x1 = 0.1088	826.73 ± 0.15	818.68 ± 0.15	810.49 ± 0.15	802.16 ± 0.15	793.63 ± 0.15	2.978 ± 0.1	2.081 ± 0.1	1.401 ± 0.1	0.999 ± 0.1	0.579 ± 0.1
x1 = 0.2019	845.91 ± 0.15	837.85 ± 0.15	829.65 ± 0.15	821.33 ± 0.15	812.86 ± 0.16	4.164 ± 0.1	2.839 ± 0.1	2.061 ± 0.1	1.474 ± 0.1	–
x1 = 0.2993	865.53 ± 0.16	857.43 ± 0.16	849.23 ± 0.16	840.93 ± 0.16	832.49 ± 0.16	5.873 ± 0.11	3.89 ± 0.1	2.864 ± 0.1	2.11 ± 0.1	1.266 ± 0.1
x1 = 0.4099	886.82 ± 0.17	878.7 ± 0.17	870.51 ± 0.17	862.22 ± 0.17	853.84 ± 0.17	8.435 ± 0.11	5.443 ± 0.11	3.97 ± 0.1	2.95 ± 0.1	1.828 ± 0.1
x1 = 0.5002	903.78 ± 0.18	895.67 ± 0.18	887.49 ± 0.18	879.21 ± 0.18	870.85 ± 0.19	11.26 ± 0.12	7.04 ± 0.11	5.05 ± 0.1	3.657 ± 0.1	2.352 ± 0.1
x1 = 0.6014	922.34 ± 0.18	914.25 ± 0.18	906.08 ± 0.18	897.8 ± 0.2	889.48 ± 0.18	15.35 ± 0.13	9.477 ± 0.11	6.59 ± 0.11	4.685 ± 0.1	3.105 ± 0.1
x1 = 0.6995	939.59 ± 0.18	931.51 ± 0.18	923.4 ± 0.18	915.21 ± 0.19	907.01 ± 0.19	20.08 ± 0.15	12.29 ± 0.12	8.276 ± 0.11	5.816 ± 0.11	3.907 ± 0.1
x1 = 0.8091	958.11 ± 0.19	950.09 ± 0.2	942.03 ± 0.2	933.93 ± 0.2	925.77 ± 0.2	26.44 ± 0.18	15.93 ± 0.14	10.5 ± 0.12	7.232 ± 0.11	4.917 ± 0.11
x1 = 0.9003	972.64 ± 0.21	964.64 ± 0.21	956.59 ± 0.21	948.49 ± 0.21	940.36 ± 0.21	32.71 ± 0.22	19.52 ± 0.16	12.63 ± 0.13	8.57 ± 0.11	5.829 ± 0.11
